Data reported in the NIST ThermoML archive (doi:10.1021/acs.jced.9b00846).

Conditions: Liquid, Vibrating tube method

CC(C)CC(C)C [2,4-dimethylpentane]
Conditions | mass density [kg/m3]
323.15 K, 25018 kPa | 673.5
323.15 K, 29938 kPa | 677.9
323.15 K, 35006 kPa | 682.2
323.15 K, 39965 kPa | 686.1
323.15 K, 45012 kPa | 690
323.15 K, 49970 kPa | 693.6
323.15 K, 54953 kPa | 697.1
323.15 K, 59965 kPa | 700.4
323.15 K, 65022 kPa | 703.7
328.15 K, 98 kPa | 641
328.15 K, 5010 kPa | 647.8
328.15 K, 9934 kPa | 653.9
328.15 K, 14950 kPa | 659.6
328.15 K, 19968 kPa | 664.9
328.15 K, 25011 kPa | 669.8
328.15 K, 30040 kPa | 674.5
328.15 K, 34952 kPa | 678.7
328.15 K, 39959 kPa | 682.8
328.15 K, 45017 kPa | 686.8
328.15 K, 49935 kPa | 690.4
328.15 K, 54941 kPa | 694
328.15 K, 59962 kPa | 697.4
328.15 K, 65006 kPa | 700.8
333.15 K, 92 kPa | 636.3
333.15 K, 4968 kPa | 643.3
333.15 K, 9977 kPa | 649.8
333.15 K, 15014 kPa | 655.7
333.15 K, 19986 kPa | 661.1
333.15 K, 25001 kPa | 666.2
333.15 K, 29959 kPa | 670.9
333.15 K, 34922 kPa | 675.3
333.15 K, 39972 kPa | 679.5
333.15 K, 45064 kPa | 683.6
333.15 K, 50006 kPa | 687.3
333.15 K, 54975 kPa | 691
333.15 K, 59984 kPa | 694.5
333.15 K, 64995 kPa | 697.8
338.15 K, 107 kPa | 631.7
338.15 K, 5007 kPa | 639.1
338.15 K, 9978 kPa | 645.7
338.15 K, 14968 kPa | 651.8
338.15 K, 19968 kPa | 657.4
338.15 K, 25042 kPa | 662.7
338.15 K, 30018 kPa | 667.5
338.15 K, 35052 kPa | 672.1
338.15 K, 39990 kPa | 676.3
338.15 K, 45087 kPa | 680.5
338.15 K, 49968 kPa | 684.3
338.15 K, 55044 kPa | 688.1
338.15 K, 60031 kPa | 691.6
338.15 K, 64997 kPa | 695
343.15 K, 98 kPa | 626.8
343.15 K, 4944 kPa | 634.4
343.15 K, 10008 kPa | 641.5
343.15 K, 14958 kPa | 647.7
343.15 K, 19959 kPa | 653.5
343.15 K, 25045 kPa | 658.9
343.15 K, 30012 kPa | 663.9
343.15 K, 34980 kPa | 668.5
343.15 K, 40024 kPa | 672.9
343.15 K, 44956 kPa | 677.1
343.15 K, 50037 kPa | 681.1
343.15 K, 55010 kPa | 684.9
343.15 K, 59979 kPa | 688.5
343.15 K, 65088 kPa | 692.1
348.15 K, 103 kPa | 622
348.15 K, 4998 kPa | 630
348.15 K, 9948 kPa | 637.2
348.15 K, 15016 kPa | 643.8
348.15 K, 19991 kPa | 649.7
348.15 K, 25051 kPa | 655.3
348.15 K, 29994 kPa | 660.3
348.15 K, 34970 kPa | 665.1
348.15 K, 39979 kPa | 669.6
348.15 K, 45063 kPa | 673.9
348.15 K, 50024 kPa | 678
348.15 K, 54974 kPa | 681.8
348.15 K, 59994 kPa | 685.5
353.15 K, 1014 kPa | 618.8
353.15 K, 5010 kPa | 625.6
353.15 K, 9950 kPa | 633
353.15 K, 15037 kPa | 639.9
353.15 K, 19996 kPa | 646
353.15 K, 25024 kPa | 651.7
353.15 K, 29983 kPa | 656.9
353.15 K, 34950 kPa | 661.8
353.15 K, 40060 kPa | 666.5
353.15 K, 45017 kPa | 670.8
353.15 K, 49987 kPa | 674.9
353.15 K, 54976 kPa | 678.9
353.15 K, 59989 kPa | 682.7
358.15 K, 5026 kPa | 621
358.15 K, 9954 kPa | 628.7
358.15 K, 15017 kPa | 635.8
358.15 K, 19926 kPa | 642
358.15 K, 25014 kPa | 647.9
358.15 K, 30045 kPa | 653.4
358.15 K, 35004 kPa | 658.3
358.15 K, 40013 kPa | 663.1
358.15 K, 44988 kPa | 667.5
358.15 K, 49996 kPa | 671.7
358.15 K, 55037 kPa | 675.8
358.15 K, 60020 kPa | 679.6
358.15 K, 65016 kPa | 683.3
363.15 K, 4947 kPa | 616.2
363.15 K, 10031 kPa | 624.5
363.15 K, 15019 kPa | 631.7
363.15 K, 19970 kPa | 638.2
363.15 K, 25122 kPa | 644.3
363.15 K, 30059 kPa | 649.8
363.15 K, 35064 kPa | 654.9
363.15 K, 40055 kPa | 659.8
363.15 K, 45078 kPa | 664.3
363.15 K, 49933 kPa | 668.5
363.15 K, 54989 kPa | 672.7
363.15 K, 59992 kPa | 676.6
363.15 K, 65058 kPa | 680.3
